Reference: patent US10159684B2, “Pharmaceutical compositions for preventing glucocorticoid-induced corneal thinning” (INSERM (INSTITUT NATIONAL DE LA SANTE ET DE LA RECHERCHE …, priority 2013, dated 2018)

How the values were obtained:
human skin explants = test: Organotypic culture of human skin explants, epidermal thickness; format: cell-based; settings: clobetasol 100 nM plus MR blocker 10 micromolar, 6 days, air/liquid interface; FIG. 3
Method: Human skin explants grown as organotypic culture represent a valuable model to study cx vivo epidermal homeostasis. Skin punches (3 mm) were made (accupunch) from human skin (discarded during mammary gland surgery) and placed in organotypic culture as explants (air/liquid interface) in 2 ml DMEM and 10% decomplemented charcoal-stripped foetal bovine scrum to remove steroids for 6 days, in the presence of clobetasol (100 nM) alone or together with spironolactone or canrenoate (potassium canrenoate) (10 micromolar) or solvent alone (0.1% ethanol).

normal adult mice = test: Glucocorticoid-induced reduction of epidermal thickness in normal adult mice, topical application over the back pelage; format: in vivo; settings: 7 days; for epidermal thickness, MR antagonist added to clobetasol: spironolactone 10 mM added to clobetasol 0.1 mM solution, FIG. 2
Method: In another set of experiments, we used normal adult mice that were treated by application of glucocorticoid (clobetasol, as 0.1 mM ethanol solution) alone or together with spironolactone (10 mM) over the back pelage, during 7 days.

[1] = system: mice with MR overexpression in keratinocytes; test: MR antagonist given during pregnancy to mice with MR overexpression in keratinocytes (K5-MR); format: in vivo; settings: pregnant mice received the MR antagonist all along pregnancy; two litters
Excerpt: To test whether the reduced epidermal thickness is related to excessive MR activation in this mouse model, we administered an antagonist of the mineralocorticoid receptor during pregnancy of the mice. […] The question arises to know which MR ligand activates the MR in this condition. Because of the absence of HSD2 (the enzyme that inactivates glucocorticoids) in the epidermis (Kenouch S, Lombes M, Delahaye F, Eugene E, Bonvalet J P, Farman N. Human skin as target for aldosterone: coexpression of mineralocorticoid receptors and 11 beta-hydroxysteroid dehydrogenase. J Clin Endocrinol Metab. 1994: 79(5): 1334-41), it is likely that MR bound ligand is endogenous corticosterone, rather than aldosterone.

| SMILES | thickness of the epidermis, MR blocker together with clobetasol (human skin explants) | epidermal thickness, MR antagonist added to clobetasol (normal adult mice; topical) | epidermal thickness, MR antagonist added to clobetasol (normal adult mice; topical, listed as Spironolactone) | epidermal thickness, MR antagonist alone (normal adult mice; spironolactone alone, topical) | epidermal thickness, glucocorticoid alone (normal adult mice; clobetasol 0.1 mM ethanol solution, topical over back pelage) | epidermal thickness of double-transgenic pups (histology) [1] | skin appearance of double-transgenic pups [1] |
| --- | --- | --- | --- | --- | --- | --- | --- |
| CC(=O)S[C@@H]1CC2=CC(=O)CC[C@]2(C)[C@H]2CC[C@@]3(C)[C@@H](CC[C@@]34CCC(=O)O4)[C@H]12 [spironolactone, 17-hydroxy-7α-mercapto-3-oxo-17α-pregn-4-ene-21-carboxylic acid γ-lactone acetate] | increase the thickness of the epidermis | reduction in epidermal thickness induced in mice by the glucocorticoid clobetasol was limited | significantly increased epidermal thickness | had no effect |  |  |  |
| C[C@H]1C[C@H]2[C@@H]3CCC4=CC(=O)C=C[C@]4(C)[C@@]3(F)[C@@H](O)C[C@]2(C)[C@@]1(O)C(=O)CCl [Clobetasol, clobetasol] |  |  |  |  | drastic reduction of epidermal thickness |  |  |
| C[C@]12CCC(=O)C=C1C=C[C@@H]1[C@@H]2CC[C@@]2(C)[C@H]1CC[C@@]2(O)CCC(=O)O [Canrenoate, potassium canrenoate] | increase the thickness of the epidermis |  |  |  |  | histologically normal epidermal thickness | normal skin appearance |
